According to patent US5330992A, “1-cyclopropyl-4-pyridyl-quinolinones” (priority 1992, dated 1994):

Experiments:
Set-up in all cases: species or system mouse
[1] = In vivo antitumor assay, Mam16C(sc); conditions: mouse, in vivo, drug route iv, qd 1, bid 2,3
From the text: (§1) Mice: Inbred: C3H/He and NCR-nu; and Hybrids: B6D2Fl (C57BL/6 females X DBA/2 males, CD2Fl (Balb/c females X DBS/2 males) and B6x C3fl (C57BL/6 x C3H) were bred at Wayne State University from strained obtained from the Frederick Cancer Research Facility, Frederick, Md. or purchased from commercial suppliers.
(§2) Tumors: Murine Tumor: P388 and an adriamycin-resistant (ADR) subline P388/ADR leukemia and the following transplantable solid tumors of mice were used for in Vivo testing: B16 melanoma (B16), pancreatic ductal adenocarcinoma No. 03 (Panc 03), colon adenocarcinoma No. 38 (colo 38), mammary ductal adenocarcinoma No. 16/C (Mam16) and an adriamycin-resistantsubline Mam16C/ADR. Human tumor: A single human tumor, mammary carcinoma MX-1 (MX1) was used for in vivo testing. All tumors are in the Developmental Therapeutics Program frozen tumor respository, maintained by the Biological Testing Branch, Frederick Md. Each has a detailed description, code identification number, and list of references at the National Tumor Repository. […]
(§3) Quantitative end points used assess antitumor activity included % Increased Life Span (% ILS), Tumor Cell Kill (Log10 kill), and Tumor Growth Inhibition (T/C). […]
(§4) The log10 cell kill was calculated from the following formula: [formula] where T-C is the tumor difference in the median day of death between the treated (T) and the control (C) groups and Td is the tumor doubling time (in days), the latter estimated from the best fit straight line from a log-linear growth plot of the control-group tumors in exponential growth. […]
(§5) Tumors were measured with a caliper once or twice weekly (as needed) until either tumors exceeded 1600 mg or cure was assured. […] When the control group tumors reached approximately 750-1500 mg in size (median of group), the median tumor weight of each group was determined (including zeros). […] The % T/C was calculated from the following formula for solid murine tumor models: [formula] where T and C are median tumor weights of the treatment and control groups, respectively. […]

[2] = system: mammary ductal adenocarcinoma No. 16/C (Mam16); experiment: In vivo antitumor assay, Mam16C(sc); conditions: drug route iv
From the text: as §1, §2, §3, §4, §5

[3] = In vivo antitumor assay, Mam16C/ADR; conditions: mouse, in vivo, drug route iv, qd 1 bid 2,3
From the text: as §1
(§6) Tumors: Murine Tumor: P388 and an adriamycin-resistant (ADR) subline P388/ADR leukemia and the following transplantable solid tumors of mice were used for in Vivo testing: B16 melanoma (B16), pancreatic ductal adenocarcinoma No. 03 (Panc 03), colon adenocarcinoma No. 38 (colo 38), mammary ductal adenocarcinoma No. 16/C (Mam16) and an adriamycin-resistantsubline Mam16C/ADR. […]
as §3, §5

[4] = system: adriamycin-resistant subline Mam16C/ADR; experiment: In vivo antitumor assay, Mam16C/ADR; conditions: drug route iv, qd 1 bid 2,3
From the text: as §1, §6, §3, §5

Which results are given for `Cc1cc(-c2c(F)cc3c(=O)c(Cc4c(O)cccc4O)cn(C4CC4)c3c2F)cc(C)n1` [Example 26, 1-Cyclopropyl-6,8-difluoro-7-[2,6-dimethyl-4-pyridinyl]-3-[2,6-dihydroxyphenylmethyl]-1,4-dihydroquinoline-4-one]?
MTD [1]: 15 mg/kg; T/C % ([2]; qd 1, bid 2,3): 28%; LOG KILL ([2]; qd 1, bid 2,3, log10 cell kill): 0.90; MTD [3]: 30 mg/kg; T/C % [4]: 71%
